Measurements published in US9624228B2, “Inhibitors of ERK and methods of use” (KURA ONCOLOGY, INC., priority 2013, dated 2017).
pIC50: −log10 of the molar value. Read-outs that look alike come from different tables or passages of the source.

Experiments:
[1] = tested on: WM-266-4 cells; test: Tumor cell line proliferation assay (CellTiter Glo), WM-266-4; settings: Homo sapiens, WM 266-4, 96 h, read-out: WM-266-4 (V599D) Cell Proliferation IC50 (nM)
Method: (§1) The ability of one or more compounds of the invention to inhibit tumor cell line proliferation was determined according to standard procedures known in the art. For instance, an in vitro cellular proliferation assay was performed to measure the metabolic activity of live cells. […] The cells were incubated at 37° C. under 5% CO2 for two hours to allow for attachment to the plates. Compounds were first diluted in 1:3 dilutions in 100% DMSO at 250× the desired concentration, and then further diluted (1:50) in 10% DMEM growth medium. The diluted compounds were added to the cell plate (25 μL for a 5× dilution) and the cells are incubated with compounds (0.4% DMSO in 10% FBS DMEM) for 96 hours at 37° C. under 5% CO2. The cell control wells were added with vehicle only (0.4% DMSO in 10% FBS DMEM or in 10% FBS RPMI). Each concentration of the compounds was tested in duplicates. After 96 hours of the compound treatment, CellTiter Glo reagent (Promega) was added at a 1:5 dilution to each well of the cell plate and the cell plate was placed at room temperature for 30 minutes. The luminescence of the wells was determined using a Tecan plate reader.

[2] = tested on: A375 cells; test: Tumor cell line proliferation assay (CellTiter Glo), A375; type: cell-based; settings: Homo sapiens, read-out: A375 (V599E) Cell Proliferation IC50
[3] = molecular target: ERK2 enzyme (Homo sapiens (Human), UniProt P28482); test: Inhibition assay of ERK (Z'-LYTE kinase assay, Ser/Thr 3 peptide substrate); type: biochemical; settings: 100 μM ATP
[4] = tested on: phospho-RSK1 (Thr359/Ser363) in A375 (Braf V600E) cells; test: Phospho-p90 RSK ELISA using A375 (Braf V600E) cells; type: cell-based; settings: Homo sapiens, A-375, 2 hours compound treatment, read-out: Cellular Phospho-p90RSK IC50
Method: In preparation for the assay, an ELISA plate with the pre-coated goat anti-mouse antibody (Thermo Scientific) was treated with a mouse anti-human RSK1 antibody (monoclonal, Invitrogen) at 1:800 dilution (150 ng/well) in PBS, and the plate was placed on a plate shaker at 4° C. overnight. […] After two hours of the compound treatment, the supernatant was removed from the cell plate, and cells were lysed in 100 μl per well of cell lysis buffer (Cell Signaling Technologies) containing phosphatase and protease inhibitors (Cell Signaling Technologies) on a plate shaker at 4° C. for 20 minutes. The ELISA plate was washed four times with ELISA wash buffer (Thermo Scientific) prior to addition of 100 μL cell lysate. The lysate was incubated on the ELISA plate with gentle shaking at room temperature for 2 hours. The contents of the wells were removed, and the ELISA plate was washed four times with wash buffer, and incubated with 100 μL per well of anti-phospho-RSK1 (Thr359/Ser363) rabbit monoclonal antibody (Millipore) at dilution of 1:1000 in StartingBlock buffer (Thermo Scientific) on a plate shaker at room temperature for 1 hour. The contents of the wells were removed, the ELISA plate was washed four times with wash buffer, and was incubated with 100 μL per well of goat anti-rabbit HRP (Thermo Scientific) at dilution of 1:3000 in StartingBlock buffer (Thermo Scientific) on a plate shaker at room temperature for 1 hour. The contents of the wells were removed, the ELISA plate was washed four times with wash buffer, and then incubated with 100 μL per well of TMB substrate solution (Thermo Scientific) on a plate shaker at room temperature for 20 minutes. Finally, 100 μL of TMB stop solution (Thermo Scientific) was added to each well and the absorbance is measured at 450 nm on a Tecan plate reader.

[5] = PBS pH 7.4, 37° C., over the course of 24 hours; cited from earlier work
[6] = control or reference compounds, 5 μM; cited from earlier work
[7] = tested on: H358 (Kras, G12C) cells; test: Tumor cell line proliferation assay (CellTiter Glo), H358; settings: Homo sapiens, NCI-H358, 96 h, read-out: H358 (Kras, G12C) Cell Proliferation IC50 (nM)
Method: as §1

[8] = In vitro, ERK2 enzyme 0.47 ng/μL

Sequence of ERK2 enzyme (P28482 whole entry): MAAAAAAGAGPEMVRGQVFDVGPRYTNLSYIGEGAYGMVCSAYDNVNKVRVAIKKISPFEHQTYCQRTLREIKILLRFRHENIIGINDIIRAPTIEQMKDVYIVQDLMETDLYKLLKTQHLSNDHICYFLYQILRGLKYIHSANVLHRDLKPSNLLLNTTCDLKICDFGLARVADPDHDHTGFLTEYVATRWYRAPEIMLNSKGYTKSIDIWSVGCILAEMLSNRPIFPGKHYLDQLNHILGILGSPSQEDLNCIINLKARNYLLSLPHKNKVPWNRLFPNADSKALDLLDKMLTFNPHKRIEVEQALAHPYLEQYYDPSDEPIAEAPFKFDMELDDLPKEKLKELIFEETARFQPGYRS

Compound	pIC50 ([3]; In vitro ERK2 enzyme)	pIC50 [3, 8]	also measured
Cc1cc(-c2n[nH]c3cc4[nH]c(=O)c(Cc5ccccc5)cc4cc23)ccn1 [Compound 6]	6.60 to 7.30		IC50 [1]: 250 to 1000 nM; pIC50 ([2]; A-375, 96 h): 6.00 to 6.60
Cc1cc(-c2n[nH]c3cc4c(cc23)CN([C@@H]2CCCN(C(=O)c3cccc(Cl)c3)C2)C(=O)N4)ccn1 [Compound 152]	> 7.30		pIC50 [4]: 6.00 to 6.60
O=C1Nc2cc3[nH]nc(-c4ccnnc4)c3cc2CN1Cc1cccc(Cl)c1 [Compound 66]	> 7.30		pIC50 [4]: 6.00 to 6.60
O=C(O)CCCc1ccc(N(CCCl)CCCl)cc1 [chlorambucil]			chemical stability [5]: largely hydrolyzed
CC(C)[N+](C)(CCOC(=O)C1c2ccccc2Oc2ccccc21)C(C)C [propantheline]			plasma stability [6]: intermediate plasma stability
Cc1cc(-c2n[nH]c3cc4[nH]c(=O)c(C(C)c5ccc(F)cc5)cc4cc23)ccn1 (centres unmarked) [Compound 197]	> 7.30		IC50 [7]: < 250 nM; pIC50 ([2]; A-375, 96 h): > 6.60; pIC50 [4]: > 6.60
O=C1Nc2cc3[nH]nc(NC4CCOCC4)c3cc2CN1[C@@H]1CN(CC(F)(F)F)C[C@H]1c1ccccc1 [Compound 361]		6.60 to 7.30	pIC50 [4]: > 6.60
Cc1cc(-c2n[nH]c3cc4c(cc23)CC([C@H](C)c2ccccc2)C(=O)N4)ccn1 (some centres unmarked) [Compound 371]		6.60 to 7.30	pIC50 [4]: 6.00 to 6.60
Cc1cc(-c2n[nH]c3cc4[nH]c(=O)c([C@H](C)c5ccc(F)cc5)cc4cc23)ccn1 [Compound 288]		> 7.30	pIC50 [4]: > 6.60
Cc1cc(-c2n[nH]c3cc4[nH]c(=O)c(C(C)c5cccc(Cl)c5)cc4cc23)ccn1 (centres unmarked) [Compound 181]	6.60 to 7.30		IC50 [7]: < 250 nM; pIC50 ([2]; A-375, 96 hours): > 6.60; pIC50 [4]: > 6.60
O=C1Nc2cc3[nH]nc(C4CC4)c3cc2CN1Cc1ccc(F)c(Cl)c1 [Compound 42]	6.60 to 7.30		
CC(c1ccccc1)c1cc2cc3c(-c4ccc(N5CCOCC5)nc4)n[nH]c3cc2[nH]c1=O (centres unmarked) [Compound 324]		6.60 to 7.30	
Cc1cc(-c2n[nH]c3cc4c(cc23)CN([C@@H]2CCCN(C3CCC3)C2)C(=O)N4)ccn1 [Compound 210]		6.60 to 7.30	
Cc1cc(-c2n[nH]c3cc4c(cc23)CN([C@H](C)c2cccc(Cl)c2)C(=O)N4)ccn1 [Compound 35]	> 7.30		
CCCOc1cc(N)ccc1C(=O)OCCN(CC)CC [propoxycaine]			plasma stability [6]: low plasma stability
Cn1cc(-c2n[nH]c3cc4c(cc23)CN([C@@H]2CCCN(Cc3ccccc3)C2)C(=O)N4)cn1 [Compound 285]		> 7.30	
COc1ncc(-c2n[nH]c3cc4[nH]c(=O)c(C(C)c5cccc(Cl)c5)cc4cc23)cn1 (centres unmarked) [Compound 129]	6.60 to 7.30		
Cc1ccc(-c2n[nH]c3cc4c(cc23)CN(Cc2cccc(Cl)c2)C(=O)N4)cn1 [Compound 58]	> 7.30		
O=C1Nc2cc3[nH]nc(-c4cncnc4)c3cc2CN1Cc1cccc(Cl)c1 [Compound 123]	> 7.30		
Cc1cc(-c2n[nH]c3cc4c(cc23)CN(C2CCN(Cc3ccccc3)CC2)C(=O)N4)ccn1 [Compound 70]	> 7.30		
Cc1cc(-c2n[nH]c3cc4c(cc23)CN([C@@H]2CCCN(CCC(C)C)C2)C(=O)N4)ccn1 [Compound 169]	> 7.30		
COc1ncc(-c2n[nH]c3cc4c(cc23)CN(Cc2ccc(F)cc2)C(=O)N4)cn1 [Compound 72]	> 7.30		
CC(c1ccccc1)c1cc2cc3c(-c4ccnc(N)c4)n[nH]c3cc2[nH]c1=O (centres unmarked) [Compound 344]		> 7.30	
Cc1ccc(-c2n[nH]c3cc4c(cc23)CN([C@@H]2CCN(CC(F)(F)F)C2)C(=O)N4)cn1 [Compound 274]		> 7.30	
COc1ncc(-c2n[nH]c3cc4c(cc23)CN([C@@H]2CCCN(Cc3ccc(F)cc3F)C2)C(=O)N4)cn1 [Compound 280]		> 7.30	
